From patent US8394789B2, “(Dihydro)pyrrolo[2,1-α]isoquinolines” (MSD Oss B.V., priority 2008, dated 2013)

Target: T1, human FSH receptor (Homo sapiens, UniProt P23945)
T1 construct: expressed in transfected cells
T1 sequence (P23945 18-695): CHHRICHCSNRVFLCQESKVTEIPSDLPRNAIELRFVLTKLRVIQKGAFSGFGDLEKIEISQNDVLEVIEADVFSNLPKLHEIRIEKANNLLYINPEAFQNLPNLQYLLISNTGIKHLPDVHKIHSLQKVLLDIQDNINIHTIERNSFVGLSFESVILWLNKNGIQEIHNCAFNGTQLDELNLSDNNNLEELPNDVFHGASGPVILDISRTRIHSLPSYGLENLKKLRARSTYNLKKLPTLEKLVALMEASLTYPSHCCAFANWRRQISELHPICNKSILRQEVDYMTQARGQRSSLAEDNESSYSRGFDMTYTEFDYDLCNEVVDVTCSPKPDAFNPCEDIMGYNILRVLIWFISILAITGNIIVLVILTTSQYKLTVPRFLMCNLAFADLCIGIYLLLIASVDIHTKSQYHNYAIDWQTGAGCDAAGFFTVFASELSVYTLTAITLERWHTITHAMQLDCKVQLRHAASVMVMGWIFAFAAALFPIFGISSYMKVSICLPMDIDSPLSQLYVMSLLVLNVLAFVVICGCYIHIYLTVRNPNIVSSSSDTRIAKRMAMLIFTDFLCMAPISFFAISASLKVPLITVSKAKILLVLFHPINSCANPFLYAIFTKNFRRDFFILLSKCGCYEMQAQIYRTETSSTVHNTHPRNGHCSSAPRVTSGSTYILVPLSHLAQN
Experiment: hFSHRago (CHO luc): agonistic activity at the human FSH receptor expressed in CHO cells, CRE-luciferase reporter
Type: cell-based
Details: CHO cells stably transfected with human FSH receptor and CRE/luciferase reporter; 4 hours of incubation

EC50 [nM]	Compound
0.9	COc1cc2c(cc1OC(C)C)-c1c(-c3cccs3)cc(C(=O)N3CCCN(C(=O)C4CCCO4)CC3)n1CC2 (stereo not drawn) [Example 1, (9-Isopropoxy-8-methoxy-1-thiophen-2-yl-5,6-dihydro-pyrrolo[2,1-α]isoquinolin-3-yl)-[4-(tetrahydro-furan-2-carbonyl)-[1,4]diazepan-1-yl]-methanone]
0.5	COc1cc2c(cc1OC(C)C)-c1c(-c3cccs3)cc(C(=O)N3CCCN(C(=O)CSC)CC3)n1CC2 [Example 2, 1-[4-(9-Isopropoxy-8-methoxy-1-thiophen-2-yl-5,6-dihydro-pyrrolo[2,1-α]isoquinoline-3-carbonyl)-[1,4]diazepan-1-yl]-2-methylsulfanyl-ethanone]
4.6	COc1cc2c(cc1OC(C)C)-c1c(-c3cccs3)cc(C(=O)N3CCCN(S(=O)(=O)c4cccs4)CC3)n1CC2 [Example 3, (9-Isopropoxy-8-methoxy-1-thiophen-2-yl-5,6-dihydro-pyrrolo[2,1-α]isoquinolin-3-yl)-[4-(thiophene-2-sulfonyl)-[1,4]diazepan-1-yl]-methanone]
1.3	COc1cc2c(cc1OC(C)C)-c1c(-c3cccs3)cc(C(=O)N3CCCN(C(=O)C(O)C(F)(F)F)CC3)n1CC2 (stereo not drawn) [Example 4, 3,3,3-Trifluoro-2-hydroxy-1-[4-(9-isopropoxy-8-methoxy-1-thiophen-2-yl-5,6-dihydro-pyrrolo[2,1-α]isoquinoline-3-carbonyl)-[1,4]diazepan-1-yl]-propan-1-one]
1400	COc1cc2c(cc1OC(C)C)-c1c(-c3cccs3)cc(C(=O)N3CCCN(C(=O)CCN)CC3)n1CC2 [Example 5, 3-Amino-1-[4-(9-isopropoxy-8-methoxy-1-thiophen-2-yl-5,6-dihydro-pyrrolo[2,1-α]isoquinoline-3-carbonyl)-[1,4]diazepan-1-yl]-propan-1-one]
264	CNCC(=O)N1CCCN(C(=O)c2cc(-c3cccs3)c3n2CCc2cc(OC)c(OC(C)C)cc2-3)CC1 [Example 6, 1-[4-(9-Isopropoxy-8-methoxy-1-thiophen-2-yl-5,6-dihydro-pyrrolo[2,1-α]isoquinoline-3-carbonyl)-[1,4]diazepan-1-yl]-2-methylamino-ethanone]
1.7	COc1cc2c(cc1OC(C)C)-c1c(-c3cccs3)cc(C(=O)N3CCCN(C(=O)C4CCC4)CC3)n1CC2 [Example 7c, (4-Cyclobutanecarbonyl-[1,4]diazepan-1-yl)-(9-isopropoxy-8-methoxy-1-thiophen-2-yl-5,6-dihydro-pyrrolo[2,1-α]isoquinolin-3-yl)-methanone]
0.3	COc1cc2c(cc1OC(C)C)-c1c(-c3cccs3)c(C#N)c(C(=O)N3CCCN(C(=O)C4CCC4)CC3)n1CC2 [Example 7d, 3-(4-Cyclobutanecarbonyl-[1,4]diazepane-1-carbonyl)-9-isopropoxy-8-methoxy-1-thiophen-2-yl-5,6-dihydro-pyrrolo[2,1-α]isoquinoline-2-carbonitrile]
6.8	COc1cc2c(cc1OC(C)C)-c1c(-c3cccs3)cc(C(=O)N3CCCN(C(=O)C4(Br)CCC4)CC3)n1CC2 [Example 8, [4-(1-Bromo-cyclobutanecarbonyl)-[1,4]diazepan-1-yl]-(9-isopropoxy-8-methoxy-1-thiophen-2-yl-5,6-dihydro-pyrrolo[2,1-α]isoquinolin-3-yl)-methanone]
16.4	COc1cc2c(cc1OC(C)C)-c1c(-c3cccs3)cc(C(=O)N3CCCN(C(=O)C4(SC)CCC4)CC3)n1CC2 [Example 9, (9-Isopropoxy-8-methoxy-1-thiophen-2-yl-5,6-dihydro-pyrrolo[2,1-α]isoquinolin-3-yl)-[4-(1-methylsulfanyl-cyclobutanecarbonyl)-[1,4]diazepan-1-yl]-methanone]
1.4	COc1cc2c(cc1OC(C)C)-c1c(-c3cccs3)cc(C(=O)N3CCCN(C(=O)C4(O)CCC4)CC3)n1CC2 [Example 10, [4-(1-Hydroxy-cyclobutanecarbonyl)-[1,4]diazepan-1-yl]-(9-isopropoxy-8-methoxy-1-thiophen-2-yl-5,6-dihydro-pyrrolo[2,1-α]isoquinolin-3-yl)-methanone]
5.4	COc1cc2c(cc1OC(C)C)-c1c(-c3cccs3)cc(C(=O)N3CCCN(C(=O)C4(OC)CCC4)CC3)n1CC2 [Example 11, (9-Isopropoxy-8-methoxy-1-thiophen-2-yl-5,6-dihydro-pyrrolo[2,1-α]isoquinolin-3-yl)-[4-(1-methoxy-cyclobutanecarbonyl)-[1,4]diazepan-1-yl]-methanone]
5.2	COc1cc2c(cc1OC(C)C)-c1c(-c3cccs3)cc(C(=O)N3CCCN(C(C)=O)CC3)n1CC2 [Example 12a]
1.9	COc1cc2c(cc1OC(C)C)-c1c(-c3cccs3)c(Cl)c(C(=O)N3CCCN(C(C)=O)CC3)n1CC2 [Example 12b, 1-[4-(2-Chloro-9-isopropoxy-8-methoxy-1-thiophen-2-yl-5,6-dihydro-pyrrolo[2,1-α]isoquinoline-3-carbonyl)-[1,4]diazepan-1-yl]-ethanone]
106	COc1cc2c(cc1OC(C)C)-c1c(-c3cccs3)cc(C(=O)N3CCNC(=O)CC3)n1CC2 [Example 13, 1-(9-Isopropoxy-8-methoxy-1-thiophen-2-yl-5,6-dihydro-pyrrolo[2,1-α]isoquinoline-3-carbonyl)-[1,4]diazepan-5-one]
0.8	CCCCN1CCN(C(=O)c2cc(-c3cccs3)c3n2CCc2cc(OC)c(OC(C)C)cc2-3)CCC1=O [Example 14a, 4-Butyl-1-(9-isopropoxy-8-methoxy-1-thiophen-2-yl-5,6-dihydro-pyrrolo[2,1-α]iso-quinoline-3-carbonyl)-[1,4]diazepan-5-one]
11	CCCCN1CCN(C(=O)c2cc(-c3cccs3)c3n2CCc2cc(OC)c(OCC(=O)OCC)cc2-3)CCC1=O [Example 14c, [3-(4-Butyl-5-oxo-[1,4]diazepane-1-carbonyl)-8-methoxy-1-thiophen-2-yl-5,6-dihydro-pyrrolo[2,1-α]isoquinolin-9-yloxy]-acetic acid ethyl ester]
1.5	CCCCN1CCN(C(=O)c2cc(-c3cccs3)c3n2CCc2cc(OC)c(OCC(C)(C)O)cc2-3)CCC1=O [Example 14d, 4-Butyl-1-[9-(2-hydroxy-2-methyl-propoxy)-8-methoxy-1-thiophen-2-yl-5,6-dihydro-pyrrolo[2,1-α]isoquinoline-3-carbonyl]-[1,4]diazepan-5-one]
249	COc1cc2c(cc1OC(C)C)-c1c(-c3cccs3)cc(C(=O)N3CC=CC3)n1CC2 [Example 15, (2,5-Dihydro-pyrrol-1-yl)-(9-isopropoxy-8-methoxy-1-thiophen-2-yl-5,6-dihydro-pyrrolo[2,1-α]isoquinolin-3-yl)-methanone]
914	COc1cc2c(cc1OC(C)C)-c1c(-c3cccs3)cc(C(=O)N3CCCN(S(=O)(=O)c4ccc(C)cc4)CCC3)n1CC2 [Example 17, (9-Isopropoxy-8-methoxy-1-thiophen-2-yl-5,6-dihydro-pyrrolo[2,1-α]isoquinolin-3-yl)-[5-(toluene-4-sulfonyl)-perhydro-1,5-diazocin-1-yl]-methanone]
8.2	COc1cc2c(cc1OC(C)C)-c1c(-c3cccs3)cc(C(=O)N3CC4CC(CN(C(C)=O)C4)C3)n1CC2 [Example 20, 1-[7-(9-isopopoxy-8-methoxy-1-thiophen-2-yl-5,6-dihydro-pyrrolo[2,1-α]isoquinoline-3-carbonyl)-3,7-diaza-bicyclo[3.3.1]non-3-yl]-ethanone]
77.8	COc1cc2c(cc1OC(C)C)-c1c(-c3cccs3)cc(C(=O)N3CC4CC(CN(C(=O)CSC)C4)C3)n1CC2 [Example 21, 1-[7-(9-Isopropoxy-8-methoxy-1-thiophen-2-yl-5,6-dihydro-pyrrolo[2,1-α]isoquinoline-3-carbonyl)-3,7-diaza-bicyclo[3.3.1]non-3-yl]-2-methylsulfanyl-ethanone]
8.9	COc1cc2c(cc1OC(C)C)-c1c(-c3cccs3)cc(C(=O)N3CC4CC(C3)CN(C(=O)C3CCC3)C4)n1CC2 [Example 22, (7-Cyclobutanecarbonyl-3,7-diaza-bicyclo[3.3.1]non-3-yl)-(9-isopropoxy-8-methoxy-1-thiophen-2-yl-5,6-dihydro-pyrrolo[2,1-α]isoquinolin-3-yl)-methanone]
787	COc1cc2c(cc1OC(C)C)-c1c(-c3cccs3)cc(C(=O)NC3C[C@@H]4CN(C(C)=O)C[C@@H]4C3)n1CC2 (stereo partly drawn) [Example 23, 9-Isopropoxy-8-methoxy-1-thiophen-2-yl-5,6-dihydro-pyrrolo[2,1-α]isoquinoline-3-carboxylic acid (2-acetyl-octahydro-cyclopenta[c]pyrrol-5(endo)-yl)-amide]
191	COc1cc2c(cc1OC(C)C)-c1c(-c3cccs3)cc(C(=O)N(C)C3C[C@@H]4CN(C(C)=O)C[C@@H]4C3)n1CC2 (stereo partly drawn) [Example 24, 9-Isopropoxy-8-methoxy-1-thiophen-2-yl-5,6-dihydro-pyrrolo[2,1-α]isoquinoline-3-carboxylic acid (2-acetyl-octahydro-cyclopenta[c]pyrrol-5(endo)-yl)-methyl-amide]
